Patent US9611267B2, “Substituted tricyclic compounds as FGFR inhibitors” (Incyte Corporation, priority 2012, dated 2017)

How the values were obtained:
Assay type in all cases: biochemical
FGFR2 = FGFR2 (Homo sapiens (Human), UniProt P21802); test: FGFR enzymatic assay (FRET peptide phosphorylation), FGFR2; settings: FGFR2 enzyme 0.01 nM, ATP 100 μM
Outline: (§1)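 IC50 values were obtained from variable-slope sigmoidal dose-response fitting of a FRET read-out of peptide phosphorylation. The buffer, described for FGFR3, was 50 mM HEPES pH 7.5 with MgCl2, EGTA, Tween-20 and DTT.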

FGFR3 = FGFR3 (Homo sapiens (Human), UniProt P22607); test: FGFR enzymatic assay (FRET peptide phosphorylation), FGFR3; settings: FGFR3 enzyme (Millipore), ATP 140 μM
FGFR3, sequence (P22607 23-806): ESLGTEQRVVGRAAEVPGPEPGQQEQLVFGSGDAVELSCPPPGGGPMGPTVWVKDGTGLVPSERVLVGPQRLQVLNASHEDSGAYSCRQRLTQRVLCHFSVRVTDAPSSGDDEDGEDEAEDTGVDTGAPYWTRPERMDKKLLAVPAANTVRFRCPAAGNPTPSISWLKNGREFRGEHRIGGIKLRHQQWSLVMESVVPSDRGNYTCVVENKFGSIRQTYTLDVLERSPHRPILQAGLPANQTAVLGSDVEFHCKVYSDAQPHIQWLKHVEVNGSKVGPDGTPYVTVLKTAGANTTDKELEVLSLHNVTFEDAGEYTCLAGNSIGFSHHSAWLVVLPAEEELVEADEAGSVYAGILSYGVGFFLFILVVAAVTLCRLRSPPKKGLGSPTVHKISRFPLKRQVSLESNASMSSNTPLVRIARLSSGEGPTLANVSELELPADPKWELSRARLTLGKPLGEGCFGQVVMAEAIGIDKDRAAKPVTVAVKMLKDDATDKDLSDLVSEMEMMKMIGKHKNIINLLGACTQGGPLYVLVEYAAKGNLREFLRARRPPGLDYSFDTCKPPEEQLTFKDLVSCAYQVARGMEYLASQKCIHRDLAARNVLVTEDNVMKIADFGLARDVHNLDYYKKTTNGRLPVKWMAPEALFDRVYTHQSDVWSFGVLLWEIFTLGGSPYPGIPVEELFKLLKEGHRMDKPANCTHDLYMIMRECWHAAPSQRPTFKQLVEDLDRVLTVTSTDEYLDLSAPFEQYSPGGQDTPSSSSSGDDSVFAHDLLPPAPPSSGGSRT
Outline: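 After 5-10 min pre-incubation of FGFR3 with serially diluted compound in pH 7.5 HEPES/MgCl2/EGTA/DTT buffer, the reaction proceeded 1 hr at 25° C. Phosphorylated peptide was detected by FRET, and IC50 was fitted with a variable-slope sigmoid.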

FGFR1 = FGFR1 (Homo sapiens (Human), UniProt P11362); test: FGFR enzymatic assay (FRET peptide phosphorylation), FGFR1; settings: FGFR1 enzyme 0.02 nM, ATP 210 μM
FGFR1, sequence (P11362 22-822): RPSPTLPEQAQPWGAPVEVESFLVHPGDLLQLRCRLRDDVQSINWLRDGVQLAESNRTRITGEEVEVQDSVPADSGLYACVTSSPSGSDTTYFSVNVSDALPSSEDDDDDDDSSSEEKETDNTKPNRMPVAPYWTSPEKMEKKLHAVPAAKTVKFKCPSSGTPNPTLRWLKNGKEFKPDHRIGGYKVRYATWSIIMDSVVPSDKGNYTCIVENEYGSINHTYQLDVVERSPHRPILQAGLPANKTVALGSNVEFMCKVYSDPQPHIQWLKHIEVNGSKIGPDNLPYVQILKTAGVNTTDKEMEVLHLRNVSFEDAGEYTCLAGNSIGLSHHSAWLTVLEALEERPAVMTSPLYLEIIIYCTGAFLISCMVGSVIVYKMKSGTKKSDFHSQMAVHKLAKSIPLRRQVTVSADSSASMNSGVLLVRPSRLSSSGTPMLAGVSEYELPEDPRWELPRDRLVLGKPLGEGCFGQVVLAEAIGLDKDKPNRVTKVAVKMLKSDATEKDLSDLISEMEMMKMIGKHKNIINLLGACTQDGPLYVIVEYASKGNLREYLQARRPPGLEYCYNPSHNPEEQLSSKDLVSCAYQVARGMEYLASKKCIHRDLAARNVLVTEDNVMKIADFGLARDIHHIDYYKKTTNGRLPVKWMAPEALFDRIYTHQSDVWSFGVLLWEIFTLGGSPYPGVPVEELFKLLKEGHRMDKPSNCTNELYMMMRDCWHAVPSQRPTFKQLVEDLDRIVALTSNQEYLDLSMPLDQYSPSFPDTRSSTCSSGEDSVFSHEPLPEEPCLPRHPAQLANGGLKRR
Outline: as §1

Measured: IC50

FGFR2, sequence (P21802 22-821): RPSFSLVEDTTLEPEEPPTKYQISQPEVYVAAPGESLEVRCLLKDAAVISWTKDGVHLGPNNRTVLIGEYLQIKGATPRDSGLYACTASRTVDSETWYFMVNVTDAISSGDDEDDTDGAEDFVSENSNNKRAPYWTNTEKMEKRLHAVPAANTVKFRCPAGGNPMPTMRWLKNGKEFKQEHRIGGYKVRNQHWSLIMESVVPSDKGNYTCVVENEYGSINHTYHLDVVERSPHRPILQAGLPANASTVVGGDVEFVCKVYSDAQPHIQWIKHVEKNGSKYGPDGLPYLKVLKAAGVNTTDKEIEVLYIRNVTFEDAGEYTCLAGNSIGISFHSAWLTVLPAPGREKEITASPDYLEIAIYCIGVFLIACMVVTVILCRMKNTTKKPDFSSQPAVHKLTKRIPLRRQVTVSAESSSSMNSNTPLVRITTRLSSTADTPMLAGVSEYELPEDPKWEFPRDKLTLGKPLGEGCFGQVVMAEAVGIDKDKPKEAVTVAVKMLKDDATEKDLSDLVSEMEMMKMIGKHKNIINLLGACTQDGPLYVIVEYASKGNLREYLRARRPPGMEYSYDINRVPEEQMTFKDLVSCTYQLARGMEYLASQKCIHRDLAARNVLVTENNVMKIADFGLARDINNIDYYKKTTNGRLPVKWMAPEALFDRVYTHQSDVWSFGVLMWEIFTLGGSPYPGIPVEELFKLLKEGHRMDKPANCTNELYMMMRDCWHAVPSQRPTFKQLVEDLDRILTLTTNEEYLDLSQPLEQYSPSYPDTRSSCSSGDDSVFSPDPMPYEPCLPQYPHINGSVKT

COc1cc(OC)c(F)c(N2Cc3cnc4[nH]nc(-c5cnn(C)c5)c4c3N(C)C2=O)c1F [Example 215, 3-(2,6-difluoro-3,5-dimethoxyphenyl)-1-methyl-9-(1-methyl-1H-pyrazol-4-yl)-1,3,4,7-tetrahydro-2H-pyrazolo[4′,3′:5,6]pyrido[4,3-d]pyrimidin-2-one]
< 100 nM: all assays above

COc1cc(OC)c(F)c(N2Cc3cnc4[nH]nc(CCN5CCOCC5)c4c3N(C)C2=O)c1F [Example 100, 3-(2,6-difluoro-3,5-dimethoxyphenyl)-1-methyl-9-(2-morpholin-4-ylethyl)-1,3,4,7-tetrahydro-2H-pyrazolo[4′,3′:5,6]pyrido[4,3-d]pyrimidin-2-one]
< 100 nM: all assays above

CCN1CCN(CCCc2cc3c4c(cnc3[nH]2)CN(c2c(F)c(OC)cc(OC)c2F)C(=O)N4C)CC1 [Example 72, 3-(2,6-difluoro-3,5-dimethoxyphenyl)-8-[3-(4-ethylpiperazin-1-yl)propyl]-1-methyl-1,3,4,7-tetrahydro-2H-pyrrolo[3′,2′:5,6]pyrido[4,3-d]pyrimidin-2-one]
< 100 nM: all assays above

COc1cc(OC)c(F)c(N2Cc3cnc4[nH]c(CN5CCN(CCC#N)CC5)cc4c3N(C)C2=O)c1F [Example 131, 3-(4-{[3-(2,6-difluoro-3,5-dimethoxyphenyl)-1-methyl-2-oxo-2,3,4,7-tetrahydro-1H-pyrrolo[3′,2′:5,6]pyrido[4,3-d]pyrimidin-8-yl]methyl}piperazin-1-yl)propanenitrile]
< 100 nM: all assays above

COc1cc(OC)c(F)c(N2Cc3cnc4[nH]c(C(=O)N(C)C)cc4c3N(C)C2=O)c1F [Example 35, 3-(2,6-Difluoro-3,5-dimethoxyphenyl)-N,N,1-trimethyl-2-oxo-2,3,4,7-tetrahydro-1H-pyrrolo[3′,2′:5,6]pyrido[4,3-d]pyrimidine-8-carboxamide]
< 100 nM: all assays above

COc1cc(OC)c(F)c(N2Cc3cnc4[nH]c(CCc5ccccn5)cc4c3N(C)C2=O)c1F [Example 140, 3-(2,6-difluoro-3,5-dimethoxyphenyl)-1-methyl-8-(2-pyridin-2-ylethyl)-1,3,4,7-tetrahydro-2H-pyrrolo[3′,2′:5,6]pyrido[4,3-d]pyrimidin-2-one]
< 100 nM: all assays above

COc1cc(OC)c(F)c(N2Cc3cnc4[nH]c(CN5CC[C@H](C#N)C5)cc4c3N(C)C2=O)c1F [Example 133, (3S)-1-{[3-(2,6-difluoro-3,5-dimethoxyphenyl)-1-methyl-2-oxo-2,3,4,7-tetrahydro-1H-pyrrolo[3′,2′:5,6]pyrido[4,3-d]pyrimidin-8-yl]methyl}pyrrolidine-3-carbonitrile]
< 100 nM: all assays above

COc1cc(OC)c(F)c(N2Cc3cnc4[nH]ccc4c3C3(CC3)C2=O)c1F [Example 66, 7′-(2,6-difluoro-3,5-dimethoxyphenyl)-6′,7′-dihydrospiro[cyclopropane-1,9′-pyrrolo[2,3-c][2,7]naphthyridin]-8′(3′H)-one]
< 100 nM: all assays above

CCN1CCN(c2ccc(-c3n[nH]c4ncc5c(c34)N(C)C(=O)N(c3c(F)c(OC)cc(OC)c3F)C5)cc2)CC1 [Example 69, 3-(2,6-difluoro-3,5-dimethoxyphenyl)-9-[4-(4-ethylpiperazin-1-yl)phenyl]-1-methyl-1,3,4,7-tetrahydro-2H-pyrazolo[4′,3′:5,6]pyrido[4,3-d]pyrimidin-2-one]
< 100 nM: all assays above

COc1cc(OC)c(F)c(N2Cc3cnc4[nH]c(C(=O)N5CC(O)C5)cc4c3N(C)C2=O)c1 [Example 28, 3-(2-Fluoro-3,5-dimethoxyphenyl)-8-[(3-hydroxyazetidin-1-yl)carbonyl]-1-methyl-1,3,4,7-tetrahydro-2H-pyrrolo[3′,2′:5,6]pyrido[4,3-d]pyrimidin-2-one]
< 100 nM: all assays above

COc1cc(CN2C(=O)N(c3c(F)c(OC)cc(OC)c3F)Cc3cnc4[nH]ncc4c32)ccn1 [Example 177, 3-(2,6-difluoro-3,5-dimethoxyphenyl)-1-[(2-methoxypyridin-4-yl)methyl]-1,3,4,7-tetrahydro-2H-pyrazolo[4′,3′:5,6]pyrido[4,3-d]pyrimidin-2-one]
< 100 nM: all assays above

COc1cc(OC)c(F)c(N2Cc3cnc4[nH]ncc4c3N(CCO)C2=O)c1F [Example 58, 3-(2,6-Difluoro-3,5-dimethoxyphenyl)-1-(2-hydroxyethyl)-1,3,4,7-tetrahydro-2H-pyrazolo[4′,3′:5,6]pyrido[4,3-d]pyrimidin-2-one]
< 100 nM: all assays above

COc1cc(OC)c(F)c(N2Cc3cnc4[nH]c(CN5CCOCC5)cc4c3N(C3CCC3)C2=O)c1F [Example 182, 1-cyclobutyl-3-(2,6-difluoro-3,5-dimethoxyphenyl)-8-(morpholin-4-ylmethyl)-1,3,4,7-tetrahydro-2H-pyrrolo[3′,2′:5,6]pyrido[4,3-d]pyrimidin-2-one]
< 100 nM: all assays above

COc1cc(OC)c(F)c(N2Cc3cnc4[nH]ccc4c3N(c3cccnc3)C2=O)c1F [Example 83, 3-(2,6-difluoro-3,5-dimethoxyphenyl)-1-pyridin-3-yl-1,3,4,7-tetrahydro-2H-pyrrolo[3′,2′:5,6]pyrido[4,3-d]pyrimidin-2-one]
< 100 nM: all assays above

COc1cc(OC)c(F)c(N2Cc3cnc4[nH]c(CN5CCOCC5)cc4c3N(CCO)C2=O)c1F [Example 221, 3-(2,6-difluoro-3,5-dimethoxyphenyl)-1-(2-hydroxyethyl)-8-(morpholin-4-ylmethyl)-1,3,4,7-tetrahydro-2H-pyrrolo[3′,2′:5,6]pyrido[4,3-d]pyrimidin-2-one]
< 100 nM: all assays above

COc1cc(OC)cc(N2Cc3cnc4[nH]ccc4c3NC2=O)c1 [Example 2, 3-(3,5-Dimethoxyphenyl)-1,3,4,7-tetrahydro-2H-pyrrolo[3′,2′:5,6]pyrido[4,3-d]pyrimidin-2-one]
< 100 nM: all assays above

COc1cc(OC)c(F)c(N2Cc3cnc4[nH]c(CN5CCN(C)CC5)cc4c3N(c3cccc(F)c3F)C2=O)c1F [Example 192, 3-(2,6-difluoro-3,5-dimethoxyphenyl)-1-(2,3-difluorophenyl)-8-[(4-methylpiperazin-1-yl)methyl]-1,3,4,7-tetrahydro-2H-pyrrolo[3′,2′:5,6]pyrido[4,3-d]pyrimidin-2-one]
< 100 nM: all assays above

CCN1CCN(CCc2cc3c4c(cnc3[nH]2)CN(c2c(F)c(OC)cc(OC)c2F)C(=O)N4C)CC1 [Example 71, 3-(2,6-difluoro-3,5-dimethoxyphenyl)-8-[2-(4-ethylpiperazin-1-yl)ethyl]-1-methyl-1,3,4,7-tetrahydro-2H-pyrrolo[3′,2′:5,6]pyrido[4,3-d]pyrimidin-2-one]
< 100 nM: all assays above

COc1cc(OC)c(F)c(N2Cc3cnc4c(c3N([C@@H]3CCC[C@H]3O)C2=O)CC(=O)N4)c1F [Example 75, 3-(2,6-difluoro-3,5-dimethoxyphenyl)-1-[(1R,2R)-2-hydroxycyclopentyl]-3,4,7,9-tetrahydro-1H-pyrrolo[3′,2′:5,6]pyrido[4,3-d]pyrimidine-2,8-dione]
< 100 nM: all assays above

COc1cc(OC)cc(N2Cc3cnc4[nH]c(C(=O)N5CC(O)C5)cc4c3N(C)C2=O)c1 [Example 20, 3-(3,5-Dimethoxyphenyl)-8-[(3-hydroxyazetidin-1-yl)carbonyl]-1-methyl-1,3,4,7-tetrahydro-2H-pyrrolo[3′,2′:5,6]pyrido[4,3-d]pyrimidin-2-one]
< 100 nM: all assays above

CCN1C(=O)N(c2c(F)c(OC)cc(OC)c2F)Cc2cnc3[nH]nc(C)c3c21 [Example 98, 3-(2,6-difluoro-3,5-dimethoxyphenyl)-1-ethyl-9-methyl-1,3,4,7-tetrahydro-2H-pyrazolo[4′,3′:5,6]pyrido[4,3-d]pyrimidin-2-one]
< 100 nM: all assays above

COc1cc(OC)c(F)c(N2Cc3cnc4[nH]ncc4c3N(c3nnn(C)n3)C2=O)c1F [Example 95, 3-(2,6-difluoro-3,5-dimethoxyphenyl)-1-(2-methyl-2H-tetrazol-5-yl)-1,3,4,7-tetrahydro-2H-pyrazolo[4′,3′:5,6]pyrido[4,3-d]pyrimidin-2-one]
< 100 nM: all assays above

COc1cc(OC)c(F)c(N2Cc3cnc4[nH]ncc4c3N(CCc3cccnc3)C2=O)c1F [Example 170, 3-(2,6-Difluoro-3,5-dimethoxyphenyl)-1-(2-pyridin-3-ylethyl)-1,3,4,7-tetrahydro-2H-pyrazolo[4′,3′:5,6]pyrido[4,3-d]pyrimidin-2-one]
< 100 nM: all assays above

COc1cc(OC)c(F)c(N2Cc3cnc4[nH]ncc4c3N(c3cnn(CC(F)F)c3)C2=O)c1F [Example 175, 3-(2,6-difluoro-3,5-dimethoxyphenyl)-1-[1-(2,2-difluoroethyl)-1H-pyrazol-4-yl]-1,3,4,7-tetrahydro-2H-pyrazolo[4′,3′:5,6]pyrido[4,3-d]pyrimidin-2-one]
< 100 nM: all assays above
